Assay results published in patent publication US12263248B2, “Compounds and compositions for intracellular delivery of therapeutic agents” (ModernaTX, Inc., priority 2018, dated 2025).

Experiments:
[1] = Encapsulation efficiency of RNA (QUANT-IT RIBOGREEN RNA assay); type: physicochemical
How it was run: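 RiboGreen fluorescence (ex ~480, em ~520 nm) compared between intact samples and Triton X-100-lysed samples after 15 min at 37 °C in TE buffer, pH 7.5. Percent free RNA is the blank-corrected intact/disrupted ratio.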

[2] = test system: luciferase (Luc) mRNA; assay: Luc expression in liver, lung, spleen and femur 6 hours after intravenous administration; type: in vivo; settings: mice, 0.5 mpk; for Total Flux Liver / Total Flux Lung / Total Flux Spleen: intravenous
How it was run: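 LNP-formulated mRNA given IV to mice (n=3) at 0.5 mpk; at 6 h, bioluminescence imaged ex vivo 15 min after IP D-luciferin (15 mg/mL, 200 μL), organs imaged within 25 min. Values are total flux by region of interest.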

[3] = test system: luciferase (Luc) mRNA; assay: Luc expression, whole body bioluminescence after intravenous administration to mice; type: in vivo; settings: for Total Flux 3 hours / Total Flux 6 hours / Total Flux 24 hours / total flux at 3 hours: mice, 0.5 mg/kg; for Total Flux 3 hours / Total Flux 6 hours / Total Flux 24 hours: Luc mRNA; for Fold increase in total body Luc Flux relative to MC3 at 6 h: Table 3A; for flux measured at 6 h relative to the MC3 formulation: in words; for Novel lipid/MC3 expression ratio, 6 hr. time point, i.v. / Novel lipid/MC3 ratio, 6 hr. timepoint, i.v.: luciferase, intravenous; for Novel lipid/MC3 expression ratio, 6 hr. time point, i.v.: relative to MC3 formulation; for Novel lipid/MC3 ratio, 6 hr. timepoint, i.v.: relative to MC3, Table 3G; for total flux at 3 hours: comparison in words
How it was run: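 Bioluminescence, read as region-of-interest total flux at 3, 6 and 24 h, followed a single 0.5 mg/kg intravenous dose of Luc mRNA-loaded nanoparticles in mice (n=6). Luciferin substrate (200 μL, 15 mg/mL in PBS) was injected intraperitoneally into CD-1 mice 15 minutes ahead of each imaging point.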

[4] = Particle size and polydispersity index of nanoparticle compositions (Zetasizer Nano ZS); type: physicochemical
How it was run: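 Zetasizer Nano ZS; samples in 1×PBS; read-out: particle size plus polydispersity index.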

[5] = Table 1B, formulated with hEPO mRNA
[6] = Table 1C, compositions for subcutaneous administration
[7] = Table 1A, lipid:DSPC:cholesterol:PEG-DMG 50:10:38.5:1.5 mol %
[8] = Table 1D, for subcutaneous administration, # formulated with hEPO mRNA
[9] = Table 1E, compositions for subcutaneous administration
[10] = nanoparticle composition with hEPO mRNA (Table 30)

Row | SMILES | EE (%) ([1]; Table 1A) | EE (%) [1, 5] | % EE [1, 6] | Total Flux Liver [2] | Total Flux Lung [2] | Total Flux Spleen [2] | Total Flux 3 hours ([3]; i.v.) | Total Flux 6 hours ([3]; i.v.) | Total Flux 24 hours ([3]; i.v.) | PDI ([4]; Table 1A) | Size (nm) [4, 7] | PDI [4, 5] | Size (nm) [4, 5] | PDI [4, 6] | Size (nm) [4, 6] | Novel lipid/MC3 expression ratio, 6 hr. time point, i.v. [3] | other results
1 | CCCCCCCCCOC(=O)CCCCCCCN(CCCCCCCC(=O)OC(CCCCCCCC)CCCCCCCC)CCCNC(=O)N(C)C [Compound 110, Heptadecan-9-yl 8-((3-(3,3-dimethylureido)propyl)(8-(nonyloxy)-8-oxooctyl)amino)octanoate] | 91.9% | 92.39% | 91.9% | 2.30E+08 | 5.76E+06 | 1.41E+08 | 1.89E+09 | 2.57E+09 | 1.11E+08 | 0.21 | 91.5 nm | 0.24 | 73.3 nm | 0.21 | 91.5 nm |  | 
2 | CCCCCCCCC(CC)OC(=O)CCCCCCCN(CCO)CCCCCCCC(=O)OC(CCCCCCCC)CCCCCCCC (stereo not shown) [Compound 49, heptadecan-9-yl 8-((2-hydroxyethyl)(8-oxo-8-(undecan-3-yloxy)octyl)amino)octanoate] | 89.52% |  |  | 5.68E+09 | 2.52E+07 | 1.87E+08 | 4.48E+10 | 1.08E+11 | 1.24E+09 | 0.14 | 88 nm |  |  |  |  | 9.81 | % EE [1, 8]: 96.2%; Fold increase in total body Luc Flux relative to MC3 at 6 h ([3]; i.v. administration): 9.81; flux measured at 6 h relative to the MC3 formulation ([3]; i.v. administration): ten times higher; PDI [4, 8]: 0.09; Size (nm) [4, 8]: 74.0 nm
3 | CCCCCCCCC(C)OC(=O)CCCCCN(CCO)CCCCCCCC(=O)OC(CCCCCCCC)CCCCCCCC (stereo not shown) [Compound 122, Heptadecan-9-yl 8-((6-(decan-2-yloxy)-6-oxohexyl)(2-hydroxyethyl)amino)octanoate] | 98.2% | 96.27% | 94.8% | 2.63E+09 | 2.77E+07 | 1.56E+07 | 3.64E+10 | 8.64E+10 | 1.95E+09 | 0.09 | 69.3 nm | 0.12 | 70.2 nm | 0.16 | 80.2 nm | 3.23 | Novel lipid/MC3 ratio, 6 hr. timepoint, i.v. [3]: 3.23
4 | CCCCCCCCCOC(=O)CCCCCCCN(CCCCCCCC(=O)OC(CCCCCCCC)CCCCCCCC)CCCNC(C)=O [Compound 108, Heptadecan-9-yl 8-((3-acetamidopropyl)(8-(nonyloxy)-8-oxooctyl)amino)octanoate] | 96% | 95.38% |  | 4.63E+08 | 9.81E+06 | 7.82E+08 | 5.04E+09 | 5.53E+09 | 1.50E+08 | 0.14 | 119 nm | 0.22 | 89.6 nm |  |  |  | % EE [1, 9]: 96%; Flux in the spleen ([2]; i.v., in words): highest; i.v. Lipid/MC3 0.5 mpk, Luc, 6 h ([3]; Table 3B, i.v., 0.5 mpk, 6 h): 0.4; PDI [4, 9]: 0.15; Size (nm) [4, 9]: 96.1 nm
5 | CCCCCCCCC(C)OC(=O)CCCCCCCN(CCO)CCCCCCCC(=O)OC(CCCCCCCC)CCCCCCCC (stereo not shown) [Compound 48, decan-2-yl 8-((8-(heptadecan-9-yloxy)-8-oxooctyl)(2-hydroxyethyl)amino)octanoate] | 96.55% |  |  | 1.08E+10 | 3.31E+07 | 3.49E+08 | 8.73E+10 | 1.10E+11 | 2.92E+09 | 0.092 | 82.3 nm |  |  |  |  |  | % EE [1, 8]: 96.2%; EE [1, 10]: 91.92%; Flux in the liver ([2]; i.v., in words): highest; Flux in the spleen ([2]; i.v., in words): highest; Lipid/MC3 Luc expression ([3]; 0.5 mpk dose to mouse, 6 hours after administration): 10.0; Fold increase in total body Luc Flux relative to MC3 at 6 h ([3]; i.v. administration): 10.0; flux measured at 6 h relative to the MC3 formulation ([3]; i.v. administration): ten times higher; total flux at 3 hours ([3]; i.v.): highest; PDI [4, 8]: 0.09; Size (nm) [4, 8]: 79.8 nm; PDI [4, 10]: 0.176; Size ([4]; nanoparticle composition with hEPO mRNA, standard MC3 formulation (Table 30)): 70.6 nm
6 | CCCCCCCCC(CC)OC(=O)CCCN(CCO)CCCCCCCC(=O)OC(CCCCCCCC)CCCCCCCC (stereo not shown) [Compound 72, Heptadecan-9-yl 8-((2-hydroxyethyl)(4-oxo-4-(undecan-3-yloxy)butyl)amino)octanoate] | 94.69% |  | 94.9% | 7.97E+08 | 1.05E+07 | 6.40E+06 | 1.73E+10 | 4.07E+10 | 7.12E+08 | 0.10 | 76.8 nm |  |  | 0.10 | 77.3 nm | 1.52 | Novel lipid/MC3 ratio, 6 hr. timepoint, i.v. [3]: 1.52
7 | CCCCCCCCCOC(=O)CCCCCCCN(CCO)CCCCCCCCCC(=O)OC(CCCCCC)CCCCCC [Compound 147, Tridecan-7-yl 10-((2-hydroxyethyl)(8-(nonyloxy)-8-oxooctyl)amino)decanoate] | 88.31% | 91.0% |  | 5.24E+09 | 6.73E+06 | 8.57E+07 | 3.24E+10 | 4.87E+10 | 3.32E+08 | 0.130 | 99.5 nm | 0.22 | 111.9 nm |  |  |  | 6 h Lipid/MC3 Avg. Luc Expression ([3]; Table 3C, i.v. administration): 6.68; Fold increase AUC Lipid/MC3 ([3]; Table 3C, i.v. administration): 6.83; AUC (h * p/s) ([3]; Table 3C, i.v. administration, Luc): 5.63E+11 h * p/s
8 | CCCCCCCCC(CCCCCCCC)OC(=O)CCCCCCCN(CCO)CCCCCC(=O)OC(CCCCCCCC)C1CC1 (stereo not shown) [Compound 128, Heptadecan-9-yl 8-((6-((1-cyclopropylnonyl)oxy)-6-oxohexyl)(2-hydroxyethyl)amino)octanoate] | 92.45% |  |  | 5.98E+09 | 2.16E+07 | 7.09E+07 | 1.04E+11 | 8.99E+10 | 1.00E+09 | 0.22 | 104.1 nm |  |  |  |  | 4.05 | % EE [1, 9]: 94%; Fold increase in total body Luc Flux relative to MC3 at 6 h ([3]; i.v. administration): 4.05; total flux at 3 hours ([3]; i.v.): highest; PDI [4, 9]: 0.13; Size (nm) [4, 9]: 73.9 nm
9 | CCCCCCCCCOC(=O)CCCCCCCN(CCCCCCCC(=O)OC(CCCCCCCC)CCCCCCCC)CCCNC(=S)NC [Compound 113, Heptadecan-9-yl 8-((3-(3-methylthioureido)propyl)(8-(nonyloxy)-8-oxooctyl)amino)octanoate] | 96.92% |  | 99.6% | 1.11E+09 | 5.55E+06 | 5.22E+07 | 5.16E+09 | 8.09E+09 | 1.30E+08 | 0.13 | 86.8 nm |  |  | 0.14 | 83.9 nm |  | 
10 | CCCCCCCCCOC(=O)CCCCCCCN(CCCCCCCC(=O)OC(CCCCCCCC)CCCCCCCC)CCCNC(=O)NC [Compound 112, Heptadecan-9-yl 8-((3-(3-methylureido)propyl)(8-(nonyloxy)-8-oxooctyl)amino)octanoate] | 99.0% | 96.40% | 99.0% | 1.48E+08 | 1.83E+06 | 2.75E+07 | 9.69E+08 | 1.04E+09 | 2.75E+07 | 0.22 | 83.7 nm | 0.21 | 60.6 nm | 0.22 | 83.7 nm |  | 
11 | CCCC/C=C\CCC(CC/C=C\CCCC)OC(=O)CCCCCCCN(CCO)CCCCCC(=O)OCCCCCCCCCCC [Compound 61, (5Z,12Z)-heptadeca-5,12-dien-9-yl 8-((2-hydroxyethyl)(6-oxo-6-(undecyloxy)hexyl)amino)octanoate] | 97.40% |  |  | 6.37E+08 | 3.56E+06 | 1.61E+07 | 6.54E+10 | 6.20E+10 | 1.78E+09 | 0.15 | 82.1 nm |  |  |  |  | 2.31 | % EE [1, 9]: 96%; PDI [4, 9]: 0.08; Size (nm) [4, 9]: 80.0 nm
